Legend:
[1] = Displacement of [3H]Spiperone from recombinant human Dopamine D4.4 receptor expressed in CHO-K1 cell membranes after 120 mins
CHO-K1 [2] = test: Displacement of [3H] Spiperone from recombinant human Dopamine D4.4 receptor expressed in CHO-K1 cell membranes at 0.1 uM after 120 mins relative to control
[3] = Intrinsic clearance in human liver microsomes by HPLC/MS analysis; type: ADME; conditions: read-out: CLH
[4] = Displacement of [3H]Spiperone from recombinant human Dopamine D4.4 receptor expressed in CHO-K1 cell membranes at 10 uM after 120 mins relative to control
[5] = Unbound fraction in human plasma by HPLC/MS based equilibrium dialysis method; type: ADME, cell-free
[6] = Plasma concentration in rat at 0.25 mg/kg, iv administered through cassette dosing after 0.25 hrs by LC/MS/MS analysis; type: ADME, organism-based
[7] = Drug uptake in rat brain at 0.25 mg/kg, iv administered through cassette dosing after 0.25 hrs by LC/MS/MS analysis; type: ADME, organism-based; conditions: for concentration at 0.25 h: brain, read-out: Drug uptake
[8] = Unbound fraction in rat plasma by HPLC/MS based equilibrium dialysis method; type: ADME, cell-free
[9] = Intrinsic clearance in rat liver microsomes by HPLC/MS analysis; type: ADME; conditions: read-out: CLH
[10] = Displacement of [3H] Spiperone from recombinant human Dopamine D4.4 receptor expressed in CHO-K1 cell membranes at 1 uM after 120 mins relative to control
[11] = Ratio of drug level in brain to plasma in rat at 0.25 mg/kg, iv administered through cassette dosing after 0.25 hrs by LC/MS/MS analysis; type: ADME, organism-based
[12] = target: D(3) dopamine receptor (Homo sapiens) (UniProt P35462); test: Displacement of [3H]Spiperone from recombinant human Dopamine D3 receptor expressed in CHO cell membranes at 10 uM after 120 mins relative to control
[13] = target: D(2) dopamine receptor (Homo sapiens) (UniProt P14416); test: Displacement of [3H]Spiperone from recombinant human Dopamine D2L receptor expressed in CHO cell membranes at 10 uM after 120 mins relative to control
[14] = target: D(1B) dopamine receptor (Homo sapiens) (UniProt P21918); test: Displacement of [3H]SCH-23390 from recombinant human Dopamine D5 receptor expressed in CHO cell membranes at 10 uM after 120 mins relative to control
[15] = target: D(2) dopamine receptor (Homo sapiens) (UniProt P14416); test: Displacement of [3H]Spiperone from recombinant human Dopamine D2S receptor expressed in CHO cell membranes at 10 uM after 120 mins relative to control
[16] = target: D(1A) dopamine receptor (Homo sapiens) (UniProt P21728); test: Displacement of [3H]SCH-23390 from recombinant human Dopamine D1 receptor expressed in CHO cell membranes at 10 uM after 120 mins relative to control
CHO-K1 [17] = test: Displacement of [3H] Spiperone from recombinant human Dopamine D4.4 receptor expressed in CHO-K1 cell membranes at 10 nM after 120 mins relative to control

D(3) dopamine receptor (Homo sapiens), sequence (P35462 whole entry): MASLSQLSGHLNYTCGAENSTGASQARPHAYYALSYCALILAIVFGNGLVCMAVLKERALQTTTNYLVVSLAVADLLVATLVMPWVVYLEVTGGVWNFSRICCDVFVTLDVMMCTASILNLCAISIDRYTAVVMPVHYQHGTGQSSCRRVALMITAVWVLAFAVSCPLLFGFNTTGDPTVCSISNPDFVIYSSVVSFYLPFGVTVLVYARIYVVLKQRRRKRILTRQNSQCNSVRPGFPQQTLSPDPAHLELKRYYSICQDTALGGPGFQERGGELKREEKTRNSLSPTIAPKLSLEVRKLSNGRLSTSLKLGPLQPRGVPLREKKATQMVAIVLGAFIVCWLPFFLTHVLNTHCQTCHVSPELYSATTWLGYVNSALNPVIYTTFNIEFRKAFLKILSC
D(1A) dopamine receptor (Homo sapiens), sequence (P21728 whole entry): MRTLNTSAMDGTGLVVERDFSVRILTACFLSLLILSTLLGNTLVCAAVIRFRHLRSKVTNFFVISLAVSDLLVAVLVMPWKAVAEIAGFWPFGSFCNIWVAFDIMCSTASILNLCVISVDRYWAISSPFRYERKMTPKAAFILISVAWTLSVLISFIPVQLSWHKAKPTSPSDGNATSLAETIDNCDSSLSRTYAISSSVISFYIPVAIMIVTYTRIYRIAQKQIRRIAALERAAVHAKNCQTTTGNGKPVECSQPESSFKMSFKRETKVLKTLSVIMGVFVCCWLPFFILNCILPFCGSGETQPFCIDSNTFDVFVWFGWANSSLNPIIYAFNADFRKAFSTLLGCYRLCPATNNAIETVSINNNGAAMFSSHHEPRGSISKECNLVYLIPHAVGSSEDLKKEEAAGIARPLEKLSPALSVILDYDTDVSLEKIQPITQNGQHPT
D(2) dopamine receptor (Homo sapiens), sequence (P14416 whole entry): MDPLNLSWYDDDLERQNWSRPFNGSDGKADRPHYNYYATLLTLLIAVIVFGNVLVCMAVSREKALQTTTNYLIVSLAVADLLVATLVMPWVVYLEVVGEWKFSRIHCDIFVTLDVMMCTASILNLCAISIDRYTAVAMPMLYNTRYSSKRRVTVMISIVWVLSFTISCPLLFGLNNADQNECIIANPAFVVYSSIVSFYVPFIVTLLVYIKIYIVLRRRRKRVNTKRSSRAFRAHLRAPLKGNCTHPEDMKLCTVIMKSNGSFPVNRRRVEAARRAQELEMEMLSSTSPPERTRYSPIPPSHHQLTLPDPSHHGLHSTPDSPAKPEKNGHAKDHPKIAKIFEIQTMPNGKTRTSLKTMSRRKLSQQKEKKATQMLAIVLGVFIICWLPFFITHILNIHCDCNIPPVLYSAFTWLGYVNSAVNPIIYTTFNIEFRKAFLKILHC
D(1B) dopamine receptor (Homo sapiens), sequence (P21918 whole entry): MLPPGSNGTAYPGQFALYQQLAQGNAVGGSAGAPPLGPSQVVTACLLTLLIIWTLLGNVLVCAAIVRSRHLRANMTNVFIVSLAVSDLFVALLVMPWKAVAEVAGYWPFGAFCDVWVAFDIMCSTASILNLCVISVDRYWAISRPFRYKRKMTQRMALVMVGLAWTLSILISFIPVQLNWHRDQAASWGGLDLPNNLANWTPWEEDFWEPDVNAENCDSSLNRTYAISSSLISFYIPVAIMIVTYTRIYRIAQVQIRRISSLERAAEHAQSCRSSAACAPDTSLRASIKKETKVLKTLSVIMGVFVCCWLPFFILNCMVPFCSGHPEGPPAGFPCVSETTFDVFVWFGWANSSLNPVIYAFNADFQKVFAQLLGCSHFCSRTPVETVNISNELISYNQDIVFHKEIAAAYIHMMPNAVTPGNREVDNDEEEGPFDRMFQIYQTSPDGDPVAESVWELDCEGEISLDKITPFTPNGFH

SMILES	IC50 [1]	CLint scaled [3]	fraction unbound [5]	concentration at 0.25 h [6]	Drug uptake ([7]; in vivo, 0.25 h, BLD = below limit of detection)	fraction unbound [8]	CLint scaled [9]	concentration at 0.25 h [7]	Kp at 0.25 h [11]	inhibition [12]	inhibition [13]	inhibition [14]	inhibition [15]	inhibition [16]	Ki [1]	inhibition (CHO-K1 [2])	inhibition [4]	inhibition [10]	inhibition (CHO-K1 [17])
COc1ccc2c(CN3CCC(F)(F)[C@@H](CCc4ccc(F)cc4)C3)c[nH]c2c1	620 nM	–	–	–	–	–	–	–	–	–	–	–	–	–	170 nM	64%	–	–	–
Fc1ccccc1CC[C@@H]1CN(Cc2c[nH]c3cc(Cl)ccc23)CCC1(F)F	190 nM	156 mL/min/kg	0.005	54.8 ng/mL	–	0.002	1300 mL/min/kg	23.5 ng/g	0.4	–	–	–	–	–	53 nM	–	–	84%	–
Fc1ccc(CC[C@H]2CN(Cc3c[nH]c4cc(F)ccc34)CCC2(F)F)cc1	320 nM	–	–	–	–	–	–	–	–	52%	< 50%	< 50%	< 50%	< 50%	89 nM	–	–	75%	–
COc1ccc2c(CN3CCC(F)(F)[C@H](CCc4cccc(F)c4)C3)c[nH]c2c1	18.6 nM	300 mL/min/kg	0.003	39 ng/mL	–	0.002	1060 mL/min/kg	43.5 ng/g	1.1	85%	53%	< 50%	< 50%	< 50%	5.2 nM	83%	–	–	–
Fc1ccc(CC[C@@H]2CN(Cc3c[nH]c4cc(Cl)ccc34)CCC2(F)F)cc1	21 nM	99 mL/min/kg	0.001	14.9 ng/mL	–	0.003	582 mL/min/kg	19.6 ng/g	1.3	< 50%	51%	< 50%	< 50%	< 50%	5.8 nM	85%	–	–	–
Fc1ccc2c(CN3CCC(F)(F)[C@@H](CCc4ccccc4F)C3)c[nH]c2c1	490 nM	–	–	–	–	–	–	–	–	54%	57%	< 50%	< 50%	< 50%	140 nM	–	–	66%	–
Fc1ccc(CC[C@@H]2CN(Cc3c[nH]c4cc(F)ccc34)CCC2(F)F)cc1	7.4 nM	–	0.004	13.2 ng/mL	–	0.011	–	25.5 ng/g	1.9	85%	53%	< 50%	< 50%	< 50%	2.1 nM	–	–	–	59%
COc1ccc2c(CN3CCC(F)(F)[C@@H](CCc4cccc(F)c4)C3)c[nH]c2c1	530 nM	–	–	–	–	–	–	–	–	–	–	–	–	–	150 nM	–	–	62%	–
Fc1ccc2c(CN3CCC(F)(F)[C@H](CCc4ccccc4F)C3)c[nH]c2c1	14.1 nM	–	0.005	30.4 ng/mL	–	0.05	–	38.9 ng/g	1.3	65%	51%	< 50%	< 50%	< 50%	3.9 nM	85%	–	–	–
Fc1ccc(CCC2CN(Cc3ncn4ccccc34)CCC2(F)F)cc1 (racemic)	35 nM	–	–	–	–	–	–	–	–	< 50%	< 50%	< 50%	< 50%	< 50%	9.7 nM	–	97%	–	–
Fc1cccc(CCC2CN(Cc3c[nH]c4cc(F)ccc34)CCC2(F)F)c1 (racemic)	77 nM	–	–	–	–	–	–	–	–	< 50%	< 50%	< 50%	< 50%	< 50%	21 nM	–	92%	–	–
Fc1ccccc1CCC1CN(Cc2c[nH]c3cc(Cl)ccc23)CCC1(F)F (racemic)	55 nM	–	–	–	–	–	–	–	–	69%	< 50%	< 50%	57%	< 50%	15.3 nM	–	96%	–	–

Now from value to compound, other results behind:

IC50 [1]	CLint scaled [3]	fraction unbound [5]	concentration at 0.25 h [6]	Drug uptake ([7]; in vivo, 0.25 h, BLD = below limit of detection)	fraction unbound [8]	CLint scaled [9]	concentration at 0.25 h [7]	Kp at 0.25 h [11]	inhibition [12]	inhibition [13]	inhibition [14]	inhibition [15]	inhibition [16]	SMILES	Ki [1]	inhibition (CHO-K1 [2])	inhibition [4]	inhibition [10]	inhibition (CHO-K1 [17])
–	70.5 mL/min/kg	0.001	25.3 ng/mL	Bld	0.001	1910 mL/min/kg	–	–	–	–	–	–	–	Fc1ccc2[nH]cc(CN3CCC(F)(F)[C@@H](CCc4ccccc4)C3)c2c1	–	–	55%	–	–
23 nM	111 mL/min/kg	0.001	28.6 ng/mL	–	0.014	2490 mL/min/kg	100 ng/g	3.5	–	–	–	–	–	Fc1ccc2c(CN3CCC(F)(F)[C@H](CCc4ccccc4)C3)c[nH]c2c1	6.3 nM	–	–	79%	–
64 nM	–	–	–	–	–	–	–	–	–	–	–	–	–	FC1(F)CCN(Cc2c[nH]c3cc(Cl)ccc23)C[C@H]1CCc1ccccc1	17.7 nM	–	–	59%	–
59 nM	–	–	–	–	–	–	–	–	–	–	–	–	–	Fc1ccc2[nH]cc(CN3CCC(F)(F)[C@H](CCc4ccccc4)C3)c2c1	16.4 nM	–	–	66%	–
230 nM	108 mL/min/kg	0.005	44.4 ng/mL	–	0.004	1670 mL/min/kg	93.7 ng/g	2.1	–	–	–	–	–	Cc1ccc(CN2CCC(F)(F)[C@H](CCc3ccccc3)C2)cc1C	63 nM	–	77%	–	–
88 nM	–	–	–	–	–	–	–	–	–	–	–	–	–	COc1ccc2cc(CN3CCC(F)(F)[C@H](CCc4ccccc4)C3)c(OC)nc2c1	24 nM	–	–	53%	–
300 nM	–	–	–	–	–	–	–	–	< 20%	< 20%	< 20%	< 20%	< 20%	Cc1ccc(CN2CCC(F)(F)C(CCc3ccccc3)C2)cc1C (racemic)	82 nM	–	85%	–	–
120 nM	–	–	–	–	–	–	–	–	< 50%	< 50%	< 50%	< 50%	< 50%	FC1(F)CCN(Cc2ncn3ccccc23)CC1CCc1ccccc1 (racemic)	34 nM	–	90%	–	–
720 nM	–	–	–	–	–	–	–	–	< 50%	< 50%	< 50%	52%	< 50%	COc1ccc2[nH]cc(CN3CCC(F)(F)C(CCc4ccccc4)C3)c2c1 (racemic)	200 nM	–	91%	–	–

— ChEMBL document CHEMBL3868641, “Discovery, characterization and biological evaluation of a novel (R)-4,4-difluoropiperidine scaffold as dopamine receptor 4 (D4R) antagonists” (Bioorg Med Chem Lett, 2016)
